From patent US20260184710A1, “CASITAS B-LINEAGE LYMPHOMA PROTOONCOGENE B (CBL-B) DEGRADING COMPOUNDS AND ASSOCIATED METHODS OF USE” (Arvinas Operations, Inc., priority 2022, published 2026) come the findings set out here.

Structures are written as SMILES. Bounds are passed on as bounds.

The term Dmax denotes the largest share of the target that was removed.

In this experiment the target is T1, Cbl-b (Homo sapiens, UniProt Q13191).
T1 construct: Cbl-b-HiBit KI Jurkat Cells were purchased from Promega; host or cells: Cbl-b-HiBiT knock-in Jurkat cells
T1 sequence (Q13191 whole entry): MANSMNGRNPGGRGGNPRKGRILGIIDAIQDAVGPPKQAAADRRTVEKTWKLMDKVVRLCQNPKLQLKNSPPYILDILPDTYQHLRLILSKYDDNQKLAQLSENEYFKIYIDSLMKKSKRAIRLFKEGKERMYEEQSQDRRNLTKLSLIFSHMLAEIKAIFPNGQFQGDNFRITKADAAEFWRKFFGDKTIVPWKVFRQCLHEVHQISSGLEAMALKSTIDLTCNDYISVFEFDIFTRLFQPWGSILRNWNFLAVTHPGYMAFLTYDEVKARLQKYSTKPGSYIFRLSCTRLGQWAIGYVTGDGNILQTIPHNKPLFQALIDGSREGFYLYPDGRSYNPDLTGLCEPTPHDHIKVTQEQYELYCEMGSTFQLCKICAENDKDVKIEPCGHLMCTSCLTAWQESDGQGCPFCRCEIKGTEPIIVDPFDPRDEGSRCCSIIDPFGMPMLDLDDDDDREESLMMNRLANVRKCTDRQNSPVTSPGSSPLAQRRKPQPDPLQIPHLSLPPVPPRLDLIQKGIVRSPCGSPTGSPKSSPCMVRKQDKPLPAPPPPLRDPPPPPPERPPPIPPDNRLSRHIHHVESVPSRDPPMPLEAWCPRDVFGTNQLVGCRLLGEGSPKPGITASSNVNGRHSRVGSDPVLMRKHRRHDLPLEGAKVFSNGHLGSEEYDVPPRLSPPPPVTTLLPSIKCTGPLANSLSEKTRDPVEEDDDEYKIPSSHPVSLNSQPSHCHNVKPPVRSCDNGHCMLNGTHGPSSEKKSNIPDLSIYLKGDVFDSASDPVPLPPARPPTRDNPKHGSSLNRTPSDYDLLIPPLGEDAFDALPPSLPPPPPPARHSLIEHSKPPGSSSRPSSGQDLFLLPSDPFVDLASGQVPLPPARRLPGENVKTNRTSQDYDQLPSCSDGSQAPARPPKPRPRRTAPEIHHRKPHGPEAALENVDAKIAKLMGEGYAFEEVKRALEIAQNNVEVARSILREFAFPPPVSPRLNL
The experiment in a line: Cbl-b Degradation Method B (Nano-Glo HiBiT lytic detection). It is filed as cell-based. The following applies: Cbl-b-HiBit KI Jurkat Cells, incubated at least 6-24 hours; for DC50: half maximal degradation, read-out: Cbl-b Degredation Method B IC50; for Dmax: maximum degradation observed, read-out: Cbl-b Degredation Method B Dmax (%). As for the experimental part:
Cbl-b Degradation Method B [table] Cbl-b-HiBit KI Jurkat Cells were purchased from Promega, and cell media consisted of RPMI 1640 with 10% […] and 1% pen/strep. The cells were counted, measured for viability, and 35 μL of the cell solution was seeded into 384 well flat bottom plates at a ratio of 20,000 cells per 35 μL. After which, the plates were incubated for ˜24 hours at 37° C. and 5% CO2. Compounds were ordered from Evotec in a 384 well plate at a 1 mM top concentration in DMSO and serially diluted 1:3 in DMSO for an 11-point dose response. Using the Bravo instrument, 1 uL of compound solution or DMSO was transferred to 125 uL of media. Each well was treated with 5 μL of compound plus media mixture or DMO and subsequently incubated for at least 6-24 hours at 37° C. and 5% CO2. After incubation, 30 μL of either NanoGlo media was added to each cell, and the plates read on the Synergy Neo2 machine. The concentration of an exemplary compound that leads to half maximal degradation (DC50) as well as the maximum degradation observed (Dmax, conventionally expressed as a percentage of control) is shown below in Table 2.
(In general: With HiBiT, luminescence reflects the tagged protein that the partner subunit can reach.)

As for `C[C@@H]1c2nc(N3CCC(O[C@H]4CC[C@H](CN5CCN(Cc6cc7c(c(C(F)(F)F)c6)CN(c6cccc(C8(Cc9nncn9C)CC(C#N)C8)c6)C7=O)C6(CC6)C5)CC4)CC3)ccc2C(=O)N1C1CCC(=O)NC1=O` (single isomer, unassigned) [Example 305, (1r***,3r***)-3-[(4-methyl-4H-1,2,4-triazol-3-yl)methyl]-3-(3-{1-oxo-6-[(7-{[(1r**,4r**)-4-({1-[(7R*)-6-(2,6-dioxopiperidin-3-yl)-7-methyl-5-oxo-5H,6H,7H-pyrrolo[3,4-b]pyridin-2-yl]piperidin-4-yl}oxy)cyclohexyl]methyl}-4,7-diazaspiro[2.5]octan-4-yl)methyl]-4-(trifluoromethyl)-2,3-dihydro-1H-isoindol-2-yl}phenyl)cyclobutane-1-carbonitrile], the DC50 was more than 500 nM.

As for `C[C@@H]1c2nc(N3CCC(O[C@H]4CC[C@H](CN5CCN(Cc6cc7c(c(C(F)(F)F)c6)CN(c6cccc(C8(Cc9nncn9C)CC(C#N)C8)c6)C7=O)C(C)(C)C5)CC4)CC3)ccc2C(=O)N1C1CCC(=O)NC1=O` (single isomer, unassigned) [Example 308, (1r***,3r***)-3-(3-{6-[(2,2-dimethyl-4-{[(1r**,4r**)-4-({1-[(7R*)-6-(2,6-dioxopiperidin-3-yl)-7-methyl-5-oxo-5H,6H,7H-pyrrolo[3,4-b]pyridin-2-yl]piperidin-4-yl}oxy)cyclohexyl]methyl}piperazin-1-yl)methyl]-1-oxo-4-(trifluoromethyl)-2,3-dihydro-1H-isoindol-2-yl}phenyl)-3-[(4-methyl-4H-1,2,4-triazol-3-yl)methyl]cyclobutane-1-carbonitrile], the DC50 is more than 500 nM.

`C[C@@H]1c2nc(N3CCC(O[C@H]4CC[C@H](CN5CCN(Cc6cc7c(c(C(F)(F)F)c6)CN(c6cccc(C8(Cc9nncn9C)CC(C#N)C8)c6)C7=O)C(C)(C)C5)CC4)CC3)ccc2C(=O)N1C1CCC(=O)NC1=O` (single isomer, unassigned) [Example 309, (1r***,3r***)-3-(3-{6-[(2,2-dimethyl-4-{[(1r**,4r**)-4-({1-[(7R*)-6-(2,6-dioxopiperidin-3-yl)-7-methyl-5-oxo-5H,6H,7H-pyrrolo[3,4-b]pyridin-2-yl]piperidin-4-yl}oxy)cyclohexyl]methyl}piperazin-1-yl)methyl]-1-oxo-4-(trifluoromethyl)-2,3-dihydro-1H-isoindol-2-yl}phenyl)-3-[(4-methyl-4H-1,2,4-triazol-3-yl)methyl]cyclobutane-1-carbonitrile]: the DC50 is more than 500 nM.

Consider `C[C@@H]1c2nc(N3CCC(O[C@H]4CC[C@H](CN5CCN(Cc6cc7c(c(C(F)(F)F)c6)CN(c6cccc(C8(Cc9nncn9C)CC(C#N)C8)c6)C7=O)CC5(C)C)CC4)CC3)ccc2C(=O)N1C1CCC(=O)NC1=O` (single isomer, unassigned) [Example 313, (1r***,3r***)-3-(3-{6-[(3,3-dimethyl-4-{[(1r**,4r**)-4-({1-[(7R*)-6-(2,6-dioxopiperidin-3-yl)-7-methyl-5-oxo-5H,6H,7H-pyrrolo[3,4-b]pyridin-2-yl]piperidin-4-yl}oxy)cyclohexyl]methyl}piperazin-1-yl)methyl]-1-oxo-4-(trifluoromethyl)-2,3-dihydro-1H-isoindol-2-yl}phenyl)-3-[(4-methyl-4H-1,2,4-triazol-3-yl)methyl]cyclobutane-1-carbonitrile], for which the DC50 is more than 500 nM.

As for `Cc1cc(N2CCC(CN3CCC4(CC3)CN(c3cc5c(c(C(F)(F)F)c3)CN(c3cccc(C6(Cc7nncn7C)COC6)c3)C5=O)C4)CC2)c(F)c2c1C(=O)N(C1CCC(=O)NC1=O)C2` (centres unmarked) [Example 12, 3-{4-fluoro-7-methyl-5-[4-({2-[2-(3-{3-[(4-methyl-4H-1,2,4-triazol-3-yl)methyl]oxetan-3-yl}phenyl)-3-oxo-7-(trifluoromethyl)-2,3-dihydro-1H-isoindol-5-yl]-2,7-diazaspiro [3.5]nonan-7-yl}methyl)piperidin-1-yl]-1-oxo-2,3-dihydro-1H-isoindol-2-yl}piperidine-2,6-dione], the DC50 was less than 5 nM and the Dmax was more than 70%.

In the case of `Cn1cnnc1C[C@]1(c2cccc(N3Cc4c(cc(CN5CCN(C[C@H]6CC[C@H](OC7CCN(c8ccc9c(c8F)CN(C8CCC(=O)NC8=O)C9=O)CC7)CC6)CC5)cc4C(F)(F)F)C3=O)c2)C[C@@H](C#N)C1` (some centres unmarked) [Example 14, (1s, 3s)-3-[(4-methyl-4H-1,2,4-triazol-3-yl)methyl]-3-(3-{1-oxo-6-[(4-{[(1r, 4r)-4-({1-[2-(2,6-dioxopiperidin-3-yl)-4-fluoro-1-oxo-2,3-dihydro-1H-isoindol-5-yl]piperidin-4-yl}oxy)cyclohexyl]methyl}piperazin-1-yl)methyl]-4-(trifluoromethyl)-2,3-dihydro-1H-isoindol-2-yl}phenyl)cyclobutane-1-carbonitrile], the DC50 was less than 5 nM and the greatest degradation seen (Dmax) lay in the range of 35 to 70%.

With `Cn1cnnc1CC1(c2cccc(N3Cc4c(cc(CN5CCN(C[C@H]6CC[C@H](OC7CCN(c8ccc9c(c8Cl)CN(C8CCC(=O)NC8=O)C9=O)CC7)CC6)CC5)cc4C(F)(F)F)C3=O)c2)COC1` (some centres unmarked) [Example 24, 3-[4-chloro-1-oxo-5-(4-{[(1r,4r)-4-[(4-{[2-(3-{3-[(4-methyl-4H-1,2,4-triazol-3-yl)methyl]oxetan-3-yl}phenyl)-3-oxo-7-(trifluoromethyl)-2,3-dihydro-1H-isoindol-5-yl]methyl}piperazin-1-yl)methyl]cyclohexyl]oxy}piperidin-1-yl)-2,3-dihydro-1H-isoindol-2-yl]piperidine-2,6-dione], the DC50 is less than 5 nM and the greatest degradation seen (Dmax) is more than 70%.

As to `Cn1cnnc1CC1(c2cccc(N3Cc4c(cc(CN5CCC(C6CCN(c7ccc8c(c7)C(=O)N(C7CCC(=O)NC7=O)C8=O)CC6)CC5)cc4C(F)(F)F)C3=O)c2)COC1` (centres unmarked) [Example 26, 2-(2,6-dioxopiperidin-3-yl)-5-(1′-{[2-(3-{3-[(4-methyl-4H-1,2,4-triazol-3-yl)methyl]oxetan-3-yl}phenyl)-3-oxo-7-(trifluoromethyl)-2,3-dihydro-1H-isoindol-5-yl]methyl}-[4,4′-bipiperidin]-1-yl)-2,3-dihydro-1H-isoindole-1,3-dione], the DC50 was more than 500 nM.

Consider `Cn1cnnc1CC1(c2cccc(N3Cc4c(cc(CN5CCC6(CC5)CCN(c5ccc7c(c5)C(=O)N(C5CCC(=O)NC5=O)C7=O)CC6)cc4C(F)(F)F)C3=O)c2)COC1` (centres unmarked) [Example 27, 2-(2,6-dioxopiperidin-3-yl)-5-(9-{[2-(3-{3-[(4-methyl-4H-1,2,4-triazol-3-yl)methyl]oxetan-3-yl}phenyl)-3-oxo-7-(trifluoromethyl)-2,3-dihydro-1H-isoindol-5-yl]methyl}-3,9-diazaspiro[5.5]undecan-3-yl)-2,3-dihydro-1H-isoindole-1,3-dione], for which the DC50 is more than 500 nM.

As to `Cn1cnnc1CC1(c2cccc(N3Cc4c(cc(CN5CCN(c6ccc7c(c6)C(=O)N(C6CCC(=O)NC6=O)C7=O)CC5)cc4C(F)(F)F)C3=O)c2)COC1` (centres unmarked) [Example 32, 2-(2,6-dioxopiperidin-3-yl)-5-(4-{[2-(3-{3-[(4-methyl-4H-1,2,4-triazol-3-yl)methyl]oxetan-3-yl}phenyl)-3-oxo-7-(trifluoromethyl)-2,3-dihydro-1H-isoindol-5-yl]methyl}piperazin-1-yl)-2,3-dihydro-1H-isoindole-1,3-dione], the DC50 lay within 50 to 500 nM and the maximal degradation (Dmax) was more than 70%.

In the case of `Cn1cnnc1CC1(c2cccc(N3Cc4c(cc(CN5CCC(c6ccc7c(c6)C(=O)N(C6CCC(=O)NC6=O)C7=O)CC5)cc4C(F)(F)F)C3=O)c2)COC1` (centres unmarked) [Example 33, 2-(2,6-dioxopiperidin-3-yl)-5-(1-{[2-(3-{3-[(4-methyl-4H-1,2,4-triazol-3-yl)methyl]oxetan-3-yl}phenyl)-3-oxo-7-(trifluoromethyl)-2,3-dihydro-1H-isoindol-5-yl]methyl}piperidin-4-yl)-2,3-dihydro-1H-isoindole-1,3-dione], the DC50 is more than 500 nM.

Turning to `Cn1cnnc1CC1(c2cccc(N3Cc4c(cc(CN5CCC(c6ccc7c(c6)CN(C6CCC(=O)NC6=O)C7=O)CC5)cc4C(F)(F)F)C3=O)c2)COC1` (centres unmarked) [Example 34, 3-[5-(1-{[2-(3-{3-[(4-methyl-4H-1,2,4-triazol-3-yl)methyl]oxetan-3-yl}phenyl)-3-oxo-7-(trifluoromethyl)-2,3-dihydro-1H-isoindol-5-yl]methyl}piperidin-4-yl)-1-oxo-2,3-dihydro-1H-isoindol-2-yl]piperidine-2,6-dione], the DC50 is more than 500 nM.

Consider `Cn1cnnc1CC1(c2cccc(N3Cc4c(cc(CN5CCN(c6ccc(C(=O)NC7CCC(=O)NC7=O)c(F)c6)CC5)cc4C(F)(F)F)C3=O)c2)COC1` (centres unmarked) [Example 35, N-(2,6-dioxopiperidin-3-yl)-2-fluoro-4-(4-{[2-(3-{3-[(4-methyl-4H-1,2,4-triazol-3-yl)methyl]oxetan-3-yl}phenyl)-3-oxo-7-(trifluoromethyl)-2,3-dihydro-1H-isoindol-5-yl]methyl}piperazin-1-yl)benzamide], for which the DC50 was more than 500 nM.
